Results: PubChem BioAssay AID488798 (The Scripps Research Institute Molecular Screening Center, 2010)
Activity calls are given as the source filed them. The rule behind the calls is not given here.

Target: Protein Rev (Human immunodeficiency virus type 1 group M subtype B (isolate HXB2)) (UniProt P04618)
Assay: inhibitors of HIV-1 Rev binding to RRE RNA, late-stage follow-up, counter-screen for gld-1 inhibitor project, biochemical, FRET, dose response (AID 488798)

Sequence of Protein Rev (Human immunodeficiency virus type 1 group M subtype B (isolate HXB2)) (P04618 whole entry, looked up): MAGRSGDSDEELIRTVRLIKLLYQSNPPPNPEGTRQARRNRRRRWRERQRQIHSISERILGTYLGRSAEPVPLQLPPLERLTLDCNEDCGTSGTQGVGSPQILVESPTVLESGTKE

SMILES	IC50
O=c1[nH]c2cc3ccccc3cc2nc1C(F)(F)F	inactive
Nc1ccc2nonc2c1[N+](=O)[O-]	> 75.4 µM (inactive)
CCOC(=O)c1c(C)oc2c1cc(NS(=O)(=O)c1ccc(C)cc1)c1ccccc12	> 75.4 µM (inactive)
CCCCn1c(=O)[nH]c2nc3cc(NC(C)=O)ccc3nc2c1=O	inactive
Nc1ccc(O)c2c1C(=O)c1ccccc1C2=O	> 75.4 µM (inactive)
O=c1[nH]c(=O)c2nc3ccccc3nc2[nH]1	> 75.4 µM (inactive)
O=C(CN1C(=O)NC2(CCCCC2)C1=O)Oc1ccc2c(C(F)(F)F)cc(=O)oc2c1	> 75.4 µM (inactive)
CC1=CC(=O)c2c(O)ccc(O)c2C1=O	> 75.4 µM (inactive)
Cc1ccc(S(=O)(=O)Nc2cc3c(C(=O)Nc4ccccc4)c(C)oc3c3ccccc23)c(C)c1	> 75.4 µM (inactive)
COc1ccc(/C=C(\CC(=O)O)c2nc3ccccc3s2)cc1O	> 75.4 µM (inactive)
COc1ccc(C=Nc2c(-c3ccco3)nc3ccccn23)cc1OC	> 75.4 µM (inactive)
CCN(CC)S(=O)(=O)c1ccc(N2CCCC2)c(NS(=O)(=O)c2ccc(F)cc2)c1	> 75.4 µM (inactive)
O=C1C2=C(SCCS2)C(=O)N1CCCO	> 75.4 µM (inactive)
Nc1c(O)ccc2c1C(=O)c1ccccc1C2=O	> 75.4 µM (inactive)
Cc1ccc(S(=O)(=O)Nc2cc3c(C(=O)Nc4ccccc4)c(C)oc3c3ccccc23)cc1	inactive
